Source: patent US20070104716A1, “Methods for controlling pathological angiogenesis by inhibition of a6b4 integrin” (SLOAN-KETTERING INSTITUTE FOR CANCER RESEARCH, priority 2003, published 2007)

Tested on: HUVECs expressing wild-type α6β4
Assay: in vitro wound closure (migration) assay on laminin-5 in response to bFGF
Type: cell-based, Human
Details: plated on laminin-5, bFGF, wound closure at 8 hours (FIG. 4A)
Procedure: When indicated, migrating cells were treated with the NF-kB inhibitor BAY 11-7082 ([…]) or the MAPK inhibitor PD98059 (50 μM).
To examine the effect of α6β4 signaling on endothelial cell migration, parental HUVECS and their derivatives expressing either wild-type or mutant α6β4 were plated on laminin-5 at confluency and subjected to in vitro wound assay. Expression of wild-type α6β4 increased endothelial cell migration in response to bFGF.
To examine the role of ERK and NF-OB signaling in endothelial cell migration, HUVECs expressing wild-type α6β4 were subjected to in vitro wound closure assay in the presence of the MEK inhibitor PD98059 or the NF-kB inhibitor BAYI 1-072.
HUVECs were electroporated with equimolar amounts of plasmids encoding α6 and either β4 or β4-1355T (Dans et al., 2001), deprived of growth factors for 18 hours, and then panned on plates coated with the anti-β4 mAb 3E1. Bound cells were washed with PBS and recovered by trypsin-EDTA treatment. For in vitro wound assays, equal numbers of cells expressing wild-type β4 or mutant β4-1355T were plated on dishes coated with laminin-5, grown until confluent, and starved. […] Wound closure was monitored by digital photography. […] HUVECS Invasion was quantified 72 hours later by counting the average number of capillary-like structures per microcarrier bead.

| Compound | migration of α6β4-expressing HUVECs (wound closure) (PD98059 50 μM) | migration of α6β4-expressing HUVECs (wound closure) (BAY 11-7082 12.5PM) |
| --- | --- | --- |
| COc1cccc(-c2cc(=O)c3ccccc3o2)c1N [PD98059] | reduced the migration of α6β4-expressing HUVECs to levels similar to those displayed by control HUVECs or HUVECs expressing mutant α6β4 |  |
| Cc1ccc(S(=O)(=O)/C=C/C#N)cc1 [BAYI 1-072] |  | reduced the migration of α6β4-expressing HUVECs to levels similar to those displayed by control HUVECs or HUVECs expressing mutant α6β4 |
